Drawing on ChEMBL document CHEMBL1132036, “Inhibition of E. coli growth by fullerene derivatives and inhibition mechanism” (Bioorg Med Chem Lett, 1999), this text covers IC50 and Dioxygen uptake rate for 3 molecules.

Test [1] deals with Escherichia coli. Briefly: Compound was tested for inhibition of Escherichia coli growth. Type of test: functional, organism-based.
Test [2] concerns Escherichia coli. Briefly: Compound was tested for inhibition of Escherichia coli dioxgen consumption. Type of test: functional.

pIC50: −log10 of the molar value.

Broadly, the pIC50 is the IC50 on a negative log10 scale, so that one unit is a factor of ten. Read a low pIC50 as a high IC50. In test [1], `C[N+]1(C)CC23c4c5c6c7c8c4c4c2c2c9c%10c%11c%12c(c5c5c6c6c%13c%14c%15c%16c%17c%18c%19c%20c%21c%22c%23c%24c%25c(c-%16c(c8c%25c4c%24c2c%22c9c2c%21c4c%19c(c%18%14)c8c%13c5c%12c8c4c%112)C7C%156)C%17C%23%20)C%103C1.C[N+]1(C)CC23c4c5c6c7c8c4c4c2c2c9c%10c%11c%12c(c5c5c6c6c%13c%14c%15c%16c%17c%18c%19c%20c%21c%22c%23c%24c%25c(c-%16c(c8c%25c4c%24c2c%22c9c2c%21c4c%19c(c%18%14)c8c%13c5c%12c8c4c%112)C7C%156)C%17C%23%20)C%103C1.[I-].[I-]` (stereo not given) showed a pIC50 of 5.30. In test [2], this molecule showed a Dioxygen uptake rate of 4.1 µM/min.

Consider `O=C(O)C1(C(=O)O)C23c4c5c6c7c8c9c%10c%11c%12c%13c%14c(c-5c5c%15c%16c(c%17c%18c2c2c4c7c4c8c7c%10c8c%10c%11c%11c%13c(c%14%15)c%13c%16c%14c%17c%15c%18c%16c2c4c2c7c8c4c(c%162)c%15c2c%14c%13c%11c%10c24)C513)C61C(C(=O)O)(C(=O)O)C9%121` (stereo not given), for which, in test [1], the pIC50 is 4.00. Besides, in test [2], the Dioxygen uptake rate turned out to be 42.2 µM/min.

`C[N+]12CCN(CC1)C13c4c5c6c7c8c4c4c1c1c9c%10c%11c%12c(c5c5c6c6c%13c%14c%15c%16c%17c%18c%19c%20c%21c%22c%23c%24c%25c(c-%16c(c8c%25c4c%24c1c%22c9c1c%21c4c%19c(c%18%14)c8c%13c5c%12c8c4c%111)C7C%156)C%17C%23%20)C%1032` (stereo not given): in test [2], the Dioxygen uptake rate turned out to be 13.7 µM/min.
